This note sets out measurements from paper PMC6022228, “Introducing novel potent anticancer agents of 1H-benzo[f]chromene scaffolds, targeting c-Src kinase enzyme with MDA-MB-231 cell line anti-invasion effect” (Journal of Enzyme Inhibition and Medicinal Chemistry, 2018).

The target of one data set is T1, c-Src kinase (Homo sapiens, UniProt P12931).
T1 construct: purchased Cell Signaling Technology (Danvers, MA) 7776
As to the kind of experiment: c-Src kinase assay (HTScan Src Kinase Assay Kit). Conditions: GST-Src kinase, triplicate; read-out: Inhibition of c-Src kinase activity, IC50. In kind it is biochemical. The protocol: Streptavidin-coated plates were purchased from Pierce (Rockford, IL). […] The reaction mixture was incubated for 30 min at room temperature. The kinase reaction was stopped with the addition of 50 µL of 50 mM EDTA (pH 8.0). […] At the end of the incubation, the wells were washed three times with 200 µL of 0.05% Tween-20 in PBS buffer (PBS/T). After that to each well was added 100 µL of phosphotyrosine antibody (P-Tyr-100) (1:1000 dilution in PBS/T with 1% BSA) and the wells were incubated for another 60 min. After washing three times with 0.05% Tween-20 in PBS/T, the wells were incubated with 100 µL secondary anti-mouse IgG antibody, which was HRP-conjugated (1:500 dilution in PBS/T with 1% BSA) for next 30 min at room temperature. The wells were washed five times with 0.05% Tween-20 in PBS and then were incubated with 100 µL of 3,3′,5,5′-tetramethylbenzidine dihydrochloride substrate for 5 min. […] IC50 values of the compounds were calculated using ORIGIN 6.0 (Origin Lab Corporation, Northampton, MA) software. […] All the experiments were carried out in triplicate.

A further data set concerns HCT-116. As to the kind of experiment: MTT viability assay, HCT-116 (human colon cancer). In kind it is cell-based. Conditions: 24 h incubation, mean ± standard error. As for the experimental part: (§1) Compounds 4a–h and 6a–h were initially evaluated for in vitro antitumour activity against three different human cell lines: MCF-7, HCT-116, and HepG-2, and only the representative active cytotoxic compounds were further evaluated against the normal HFL-1 cell line. The in vitro cytotoxicity evaluation was performed at the Regional Center for Mycology & Biotechnology (RCMP), Al-Azhar University under different concentrations (50, 25, 12.5, 6.25, 3.125, 1.56, and 0 µg/mL); Vinblastine and Doxorubicin are used as reference cytotoxic compounds. The measurements of cell growth and the in vitro cytotoxicity evaluation were determined using viability assay as described in literature[31–33] and the result was cited in Table 1 and Figure 2.
(§2) The in vitro cytotoxic evaluation of the prepared compounds 4a–h and 6a–h was performed against MCF-7 (breast cancer), HCT-116 (human colon cancer), HepG-2 (liver cancer), and HFL-1(normal fibroblast lung) using the 3-(4,5-dimethylthiazol-2-yl)-2,5-diphenyl tetrazolium bromide (MTT) colorimetric assay as described in literature. […] The results were expressed as growth inhibitory concentration (IC50) values, which represent the compounds’ concentrations required to produce a 50% inhibition of the cell growth after 24 h of incubation, compared to the untreated controls as shown in Table 1 and Figure 2.
On the technique in general: Tetrazolium dyes change colour on reduction, which living cells bring about.

Another data set deals with HFL-1. In words: MTT viability assay, HFL-1 (normal fibroblast lung). The format is cell-based. The following applies: Homo sapiens, HFL1, 24 h incubation, normal cell line, mean ± standard error. The protocol: as §1, §2
For data set [1], the system named is caspases 3/7 in MDA-MB-231 cells. In words: Caspase-Glo 3/7 activity assay. The format is cell-based. The following applies: Homo sapiens, 24 h treatment, 10 concentrations, read-out: Caspase-Glo 3/7 activity assay, MDA-MB-231 cell line, IC50. As for the experimental part:
The Caspase-Glo 3/7 activity assay was performed by Reaction Biology Corporation, One Great Valley Parkway, PA. Examined compounds 4c, 4e, 4h, 6d, and 6e were dissolved in DMSO as 20 mM stock and tested for their ability to Caspase-Glo 3/7 activity assay. […] Caspase-Glo 3/7 activity assay reagent was purchased from Promega (Madison, WI). MDA-MB-231 cell line was provided by ATCC. MDA-MB-231 cell line culture conditions: DMEM with 10% FBS. 100 µg/mL penicillin and 100 µg/mL streptomycin were added to the culture media. Cultures were maintained at 37 °C in a humidified atmosphere of 5% CO2 and 95% air.
Caspases are […] that promote apoptosis. Caspases are vital biochemical features of apoptotic signalling. […] To determine whether the cell growth inhibition in response to the benzochromene derivatives was mediated by apoptosis and was caspase dependent, MDA-MB-231 cells were treated with 10 different concentrations of the target compounds for 24 h.

The next data set concerns HepG-2. In words: MTT viability assay, HepG-2 (liver cancer). The following applies: Homo sapiens, HepG2, 24 h incubation, mean ± standard error. The format is cell-based. The protocol: as §1, §2
For a further data set, the system named is MCF-7. In words: MTT viability assay, MCF-7 (breast cancer). Conditions: Homo sapiens, MCF7, 24 h incubation, mean ± standard error. In kind it is cell-based. As for the experimental part:
as §1, §2

In another data set the test system is MDA-MB-231 cell line. As to the kind of experiment: Cell invasion assay. The following applies: Homo sapiens. In kind it is cell-based. The protocol: The cell invasion assay was performed by Reaction Biology Corporation, One Great Valley Parkway, PA. All compounds were dissolved in DMSO and tested for their ability to cell invasion assay. Compounds 4c, 6e, and reference compound bosutinib were purchased from Sellechem (Houston, TX). Corning Bio Coat Fluoro Blok Insert System-96-well plates were purchased from Corning (Corning Incorporated, Tewksbury, MA). Calcein AM labelling reagent was purchased from Molecular Probes (Eugene, Oregon). MDA-MB-231 cell line was purchased from American Type Culture Collection (Manassas, VA). MDA-MB-231 cells were grown in DMEM medium supplemented with 10% foetal bovine serum (FBS), 100 µg/mL of penicillin, and 100 µg/mL of streptomycin. Cultures were maintained at 37 °C in a humidified atmosphere of 5% CO2 and 95% air-following incubation; medium was carefully removed from the apical chambers. The insert system was transferred into a second 96-square well plate containing 200 µl/well of 4 µg/mL Calcein AM in HBSS. The plates were incubated for 1 h at 37 °C, 5% CO2. Fluorescence of invaded cells was read at wavelengths of 492/535 nm (Ex/Em) from bottom reading using Envision 2104 Multilabel Reader (PerkinElmer, Santa Clara, CA). The IC50 curves were plotted and IC50 values were calculated using the Graph Pad Prism 4 program for windows (Graph Pad software, San Diego California. www.graphpad.com) based on a sigmoidal dose-response equation.
Tumour invasion is a common feature of triple-negative breast cancers. […] The invasion process has become an important prerequisite for cancer progression and metastasis. […] A bosutinib drug was used as a control ant-invasive agent. […] The obtained data might confirm that the cytotoxicity of novel molecules led to the death of the cancer cells and stopped the metastatic processes.

[2] abbreviates: Table 2, read-out: IC50 anti-invasion, MDA-MB-231 breast cancer cells.

SMILES strings stand for the structures. In brackets after ≈: the same amount, converted by molar mass. Several values for one entry are separate records, joined by “and”; a condition that tells them apart may be missing. Identical values can stand only once. Like-named read-outs stand apart in the source and are kept apart here.

A word on the melting point: it is the temperature of the solid-liquid transition.

T1 sequence (P12931 whole entry): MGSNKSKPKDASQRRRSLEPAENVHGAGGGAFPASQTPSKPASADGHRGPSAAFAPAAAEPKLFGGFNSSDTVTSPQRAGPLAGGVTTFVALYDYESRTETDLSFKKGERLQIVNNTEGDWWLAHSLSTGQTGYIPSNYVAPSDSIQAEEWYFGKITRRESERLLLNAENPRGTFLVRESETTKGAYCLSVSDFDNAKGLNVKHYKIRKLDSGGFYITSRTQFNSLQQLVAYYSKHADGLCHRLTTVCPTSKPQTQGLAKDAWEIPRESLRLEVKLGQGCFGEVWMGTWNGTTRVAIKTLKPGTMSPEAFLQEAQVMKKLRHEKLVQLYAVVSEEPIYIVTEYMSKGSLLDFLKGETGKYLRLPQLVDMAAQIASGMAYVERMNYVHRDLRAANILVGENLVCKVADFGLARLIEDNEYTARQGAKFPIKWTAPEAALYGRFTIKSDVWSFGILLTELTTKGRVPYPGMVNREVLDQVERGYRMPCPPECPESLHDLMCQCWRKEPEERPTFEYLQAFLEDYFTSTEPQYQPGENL

In the case of `N#CC1=C(N)Oc2ccc3cc(Br)ccc3c2C1c1ccc(Cl)cc1` (centres unmarked) [Compound 4c, 3-Amino-8-bromo-1-(4-chlorophenyl)-1H-benzo[f]chromene-2-carbonitrile], the melting point is 260 to 261 °C. Further, the IC50 at c-Src kinase is 0.009 to 0.329 µM and 0.089 µM. In the data set with HCT-116, this compound registered an IC50 of 0.7 ± 0.11 µg/mL (≈ 1.7 µM). The compound further came in with an IC50 with HFL-1 of 15.2 ± 0.1 µg/mL (≈ 36.9 µM). In addition, the IC50 in data set [1] is 22.6 µM. In addition, the IC50 in the data set with HepG-2 is 1.1 ± 0.12 µg/mL (≈ 2.67 µM). Further, the IC50 with MCF-7 was 0.5 ± 0.23 µg/mL (≈ 1.21 µM). In addition, the IC50 in the data set with MDA-MB-231 cell line (setting [2]) came out at 10.8 µM. Also, the IC50 in the data set with MDA-MB-231 cell line (read-out: IC50 anti-invasion activity, MDA-MB-231) came out at 10.5 µM.
The compound `COc1ccc2c3c(ccc2c1)OC(N)=C(C#N)C3c1ccc(C)cc1` (centres unmarked) [Compound 6e, 3-Amino-8-methoxy-1-(4-methylphenyl)-1H-benzo[f]chromene-2-carbonitrile] returned a melting point of 232 to 233 °C. On c-Src kinase, the IC50 was 0.009 µM. In the data set on HCT-116, this compound came in with an IC50 of 0.8 ± 0.06 µg/mL (≈ 2.34 µM). This compound also yielded an IC50 in the data set with HFL-1 of 29.7 ± 0.17 µg/mL (≈ 86.7 µM). For the same compound, the IC50 in data set [1] was found to be 38.9 µM. The compound further yielded an IC50 in the data set on HepG-2 of 0.6 ± 0.21 µg/mL (≈ 1.75 µM). Also, the IC50 with MCF-7 stood at 0.3 ± 0.05 µg/mL (≈ 0.876 µM). Moreover, the IC50 with MDA-MB-231 cell line (setting [2]) was 16.5 µM.
